# From patent US20130022974A1, “DNA METHYLATION PROFILES IN CANCER” (THE REGENTS OF THE UNIVERSITY OF MICHIGAN, priority 2011, published 2013)
# “Also recorded” adds a separate entry of the source.
# Experiments:
# LNCaP cells [1] = experiment: Expression profiling of 5-Aza treated LNCaP cells (Agilent 44K array, one-class SAM); format: cell-based, human; details: 6 μM 5-Aza for 4 or 6 days vs DMSO, 5% false discovery rate, number of methylated genes on the array
# Description: Significance analysis of microarray (SAM) (Tusher et al. Proc Natl Acad Sci USA 98: 5116-5121 2001) was performed on the gene expression dataset obtained from 5-Aza and DMSO-treated LNCaP cells by selecting genes that were methylated in LNCaP. From 1,171 methylated genes from LNCaP M-NGS (Table 1), a total of 973 genes were mapped to Agilent expression profiling data. One-class SAM analysis was done using default settings and significant genes were calculated with a false discovery rate (FDR) of 0.05.
# For 5-Aza stimulation experiments, LNCaP cells cultured in RPMI 1640 were treated with vehicle, dimethyl sulfoxide (DMSO) or 6 μM 5-Aza for 4 or 6 days in duplicates. Total RNA was isolated with Trizol (Life Technologies, Carlsbad, Calif.) and further purified using RNAeasy Micro Kit (Qiagen, Valencia, Calif.) according to the manufacturer's instructions. Expression profiling was performed using the Agilent 44K expression array. One microgram of total RNA was converted to cRNA and then labeled according to the manufacturer's protocol (Agilent). Hybridizations were performed for 16 h at 65° C. Scanned images from Agilent microarray scanner were analyzed and extracted using Agilent Feature Extraction Software 9.1.3.1 with linear and lowess normalization performed for each array. […]
# LNCaP cells [2] = experiment: Quantitative real time PCR of transcript variants in 5-Aza treated LNCaP cells; format: cell-based, human; details: 5-Aza treatment vs DMSO
# Description: Total RNA was isolated from cells using RNeasy mini kit (Qiagen, Valencia, Calif.) according to manufacturer's instructions. A DNAseI treatment step was included during the total RNA isolation procedure to remove genomic DNA from the samples. One microgram of total RNA was used in cDNA synthesis using Superscript III reverse transcriptase (Invitrogen, Carlsbad, Calif.). Quantitative real time PCR (QPCR) was performed on prostate cell line cDNA samples using SYBR Green Mastermix (Applied Biosystems) on an Applied Biosystems 7900 Real Time PCR system as described (Tomlins et al. 2007, Nat Genet 39: 41-51). GAPDH primers sequences were as described (Vandesompele et al. 2002, Genome Biol 3: RESEARCH0034). The amount of target transcript and GAPDH in each sample was normalized by standard ddCt methodology, and then to the reference PrEC or DMSO-treated LNCaP samples accordingly.
# For 5-Aza stimulation experiments, LNCaP cells cultured in RPMI 1640 were treated with vehicle, dimethyl sulfoxide (DMSO) or 6 μM 5-Aza for 4 or 6 days in duplicates. Total RNA was isolated with Trizol (Life Technologies, Carlsbad, Calif.) and further purified using RNAeasy Micro Kit (Qiagen, Valencia, Calif.) according to the manufacturer's instructions. Expression profiling was performed using the Agilent 44K expression array. One microgram of total RNA was converted to cRNA and then labeled according to the manufacturer's protocol (Agilent). Hybridizations were performed for 16 h at 65° C. Scanned images from Agilent microarray scanner were analyzed and extracted using Agilent Feature Extraction Software 9.1.3.1 with linear and lowess normalization performed for each array. A total of 4 hybridizations were performed including two 4 day and two 6 day 5-Aza treated samples (Cy5) against control DMSO-treated samples (Cy3). The accession number for gene expression dataset in the GEO database is GSE27619.
smiles,measurement,setting,value
"Nc1ncn([C@H]2C[C@H](O)[C@@H](CO)O2)c(=O)n1 [5-Aza, 5-Aza-2′-deoxycytidine]",upregulation of LNCaP methylated genes (SAM),LNCaP cells [1],246 out of 973
same,re-expression of CpG-methylated APC variant-2 and -3,LNCaP cells [2],preferentially re-expressed; also recorded: re-expression
same,re-expression of CpG-methylated NDRG2 variants 1-4,LNCaP cells [2],preferentially re-expressed; also recorded: re-expression
same,re-expression of CpG-methylated RASSF1 variant-1 transcript,LNCaP cells [2],preferential re-expression
